# Target: T1, GPR43 (Homo sapiens, UniProt O15552)
# T1 construct: expressed in transfected cells
# T1 sequence (O15552 1-330): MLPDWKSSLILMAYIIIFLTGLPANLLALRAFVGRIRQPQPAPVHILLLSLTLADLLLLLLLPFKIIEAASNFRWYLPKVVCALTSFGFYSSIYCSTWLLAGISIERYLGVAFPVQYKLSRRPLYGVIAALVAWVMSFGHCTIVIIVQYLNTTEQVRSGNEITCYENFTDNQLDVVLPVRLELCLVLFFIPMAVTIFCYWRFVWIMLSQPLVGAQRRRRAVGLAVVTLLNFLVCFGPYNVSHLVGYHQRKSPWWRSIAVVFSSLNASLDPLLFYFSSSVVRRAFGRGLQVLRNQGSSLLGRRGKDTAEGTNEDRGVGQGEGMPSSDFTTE
# Experiment: Calcium mobilization assay with probenecid
# Assay type: cell-based
# Conditions: GPR43 stably expressing cells; triggered with sodium acetate at EC80; 2.5 mM probenecid; read-out: GPR43 assay with probenicid IC50
# Summary of the method: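 Cells stably expressing GPR43 plated overnight at 37 °C, then loaded 2 h with Calcium 4 dye plus 2.5 mM probenecid. […]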
row,SMILES,IC50 [nM]
1,"COc1cccc(CC2(C(=O)N(CCCC(=O)NS(C)(=O)=O)Cc3cccc(Cl)c3)CCN2C(=O)c2csc3ccccc23)c1 (centres unmarked) [Compound 242, 1-(benzo[b]thiophene-3-carbonyl)-N-(3-chlorobenzyl)-2-(3-methoxybenzyl)-N-(4-(methylsulfonamido)-4-oxobutyl)azetidine-2-carboxamide]",501 to 1000
2,"CCCC1(C(=O)N(CCCC(=O)NS(C)(=O)=O)Cc2cccc(Cl)c2)CCN1C(=O)c1csc2ccccc12 (centres unmarked) [Compound 232, 1-(benzo[b]thiophene-3-carbonyl)-N-(3-chlorobenzyl)-N-(4-(methylsulfonamido)-4-oxobutyl)-2-propylazetidine-2-carboxamide]",101 to 500
3,"CC1(C(=O)N(CCCC(=O)O)Cc2ccc(Cl)cc2)CCN1C(=O)Oc1ccc(C(F)(F)F)cc1 (centres unmarked) [Compound 226, 4-(N-(4-chlorobenzyl)-2-methyl-1-((4-(trifluoromethyl)phenoxy)carbonyl)azetidine-2-carboxamido)butanoic acid]",> 1000
4,"CN(Cc1ccc(Cl)cc1)C(=O)C1(C)CCN1C(=O)Cc1ccc(F)c2ccccc12 (centres unmarked) [Compound 106, 1-[2-(4-Fluoro-naphthalen-1-yl)-acetyl]-2-methyl-azetidine-2-carboxylic acid (4-chloro-benzyl)-methyl-amide]",> 1000
5,"CSc1ccc(OC(=O)N2CCC2(C)C(=O)N(CCCC(=O)O)Cc2ccc(Cl)cc2)cc1 (centres unmarked) [Compound 227, 4-(N-(4-chlorobenzyl)-2-methyl-1-((4-(methylthio)phenoxy)carbonyl)azetidine-2-carboxamido)butanoic acid]",501 to 1000
6,"CS(=O)(=O)NC(=O)CCCN(Cc1cccc(Cl)c1)C(=O)C1(Cc2ccc(F)cc2)CCN1C(=O)c1csc2ccccc12 (centres unmarked) [Compound 241, 1-(benzo[b]thiophene-3-carbonyl)-N-(3-chlorobenzyl)-2-(4-fluorobenzyl)-N-(4-(methylsulfonamido)-4-oxobutyl)azetidine-2-carboxamide]",501 to 1000
7,"Cc1cc(C)cc(CC(=O)N2CCC2(C)C(=O)N(CCS(=O)(=O)N2CCOCC2)Cc2ccc(Cl)cc2)c1 (centres unmarked) [Compound 179, 1-[2-(3,5-Dimethyl-phenyl)-acetyl]-2-methyl-azetidine-2-carboxylic acid (4-chloro-benzyl)-[2-(morpholine-4-sulfonyl)-ethyl]-amide]",> 1000
8,"Cc1cc(C)cc(CC(=O)N2CCC2(C)C(=O)N(CCc2cc(O)n(C)n2)Cc2ccc(Cl)cc2)c1 (centres unmarked) [Compound 117, 1-[2-(3,5-Dimethyl-phenyl)-acetyl]-2-methyl-azetidine-2-carboxylic acid (4-chloro-benzyl)-[2-(5-hydroxy-1-methyl-1H-pyrazol-3-yl)-ethyl]-amide]",> 1000
9,"CC1(C(=O)N(CCCS(N)(=O)=O)c2ccc(Cl)cc2)CCN1C(=O)c1csc2ccccc12 (centres unmarked) [Compound 206, 1-(Benzo[b]thiophene-3-carbonyl)-2-methyl-azetidine-2-carboxylic acid (4-chloro-phenyl)-(3-sulfamoyl-propyl)-amide]",0.01 to 100
10,"CNS(=O)(=O)CCCN(Cc1ccc(Cl)cc1)C(=O)C1(C)CCN1C(=O)Cc1cc(C)cc(C)c1 (centres unmarked) [Compound 174, 1-[2-(3,5-Dimethyl-phenyl)-acetyl]-2-methyl-azetidine-2-carboxylic acid (4-chloro-benzyl)-(3-methylsulfamoyl-propyl)-amide]",101 to 500
11,"CC(C)C1(C(=O)N(CCCS(N)(=O)=O)Cc2cccc(Cl)c2)CCN1C(=O)c1csc2ccccc12 (centres unmarked) [Compound 217, 1-(benzo[b]thiophene-3-carbonyl)-N-(3-chlorobenzyl)-2-isopropyl-N-(3-sulfamoylpropyl)azetidine-2-carboxamide]",101 to 500
12,"COc1ccc(Cl)c(OC(=O)N2CCC2(C)C(=O)N(CCCC(=O)O)Cc2ccc(Cl)cc2)c1 (centres unmarked) [Compound 215, 4-(1-((2-chloro-5-methoxyphenoxy)carbonyl)-N-(4-chlorobenzyl)-2-methylazetidine-2-carboxamido)butanoic acid]",> 1000
13,"C=CCC1(C(=O)N(CCCC(=O)NS(C)(=O)=O)Cc2cccc(Cl)c2)CCN1C(=O)c1csc2ccccc12 (centres unmarked) [Compound 229, 2-allyl-1-(benzo[b]thiophene-3-carbonyl)-N-(3-chlorobenzyl)-N-(4-(methylsulfonamido)-4-oxobutyl)azetidine-2-carboxamide]",0.01 to 100
14,"CN(Cc1ccc(Cl)cc1)C(=O)C1(C)CCN1C(=O)c1ccc2sccc2c1 (centres unmarked) [Compound 112, 1-(Benzo[b]thiophene-5-carbonyl)-2-methyl-azetidine-2-carboxylic acid (4-chloro-benzyl) methyl-amide]",501 to 1000
15,"CC1(C(=O)N(CCCC(=O)O)Cc2ccc(Cl)cc2)CCN1C(=O)Oc1ccc(Cl)cc1Cl (centres unmarked) [Compound 238, 4-(N-(4-chlorobenzyl)-1-((2,4-dichlorophenoxy)carbonyl)-2-methylazetidine-2-carboxamido)butanoic acid]",> 1000
16,"CCOc1cc(CCN(Cc2ccc(Cl)cc2)C(=O)C2(C)CCN2C(=O)Cc2cc(C)cc(C)c2)n[nH]1 (centres unmarked) [Compound 120, 1-[2-(3,5-Dimethyl-phenyl)-acetyl]-2-methyl-azetidine-2-carboxylic acid (4-chloro-benzyl)-[2-(5-ethoxy-1H-pyrazol-3-yl)-ethyl]-amide]",> 1000
17,"COc1ccc(OC(=O)N2CCC2(C)C(=O)N(CCCC(=O)O)Cc2ccc(Cl)cc2)c(Cl)c1 (centres unmarked) [Compound 224, 4-(1-((2-chloro-4-methoxyphenoxy)carbonyl)-N-(4-chlorobenzyl)-2-methylazetidine-2-carboxamido)butanoic acid]",> 1000
18,"C[C@@H](c1cccc(Cl)c1)N(CCCC(=O)NS(C)(=O)=O)C(=O)[C@@]1(C)CCN1C(=O)c1csc2ccccc12 [Compound 231, (R)-1-(benzo[b]thiophene-3-carbonyl)-N-((S)-1-(3-chlorophenyl)ethyl)-2-methyl-N-(4-(methylsulfonamido)-4-oxobutyl)azetidine-2-carboxamide]",0.01 to 100

# The next lines start with the values.
row,IC50 [nM],SMILES
1,101 to 500,"CC1(C(=O)N(CCCC(=O)O)Cc2ccc(C(F)(F)F)cc2)CCN1C(=O)Cc1coc2ccccc12 (centres unmarked) [Compound 160, 4-[[1-(2-Benzofuran-3-yl-acetyl)-2-methyl-azetidine-2-carbonyl]-(4-trifluoromethyl-benzyl)-amino]-butyric acid]"
2,101 to 500,"CC1(C(=O)N(CCCC(=O)O)Cc2ccc3ccoc3c2)CCN1C(=O)Cc1coc2ccccc12 (centres unmarked) [Compound 164, 4-{[1-(2-Benzofuran-3-yl-acetyl)-2-methyl-azetidine-2-carbonyl]-benzofuran-6-ylmethyl-amino}-butyric acid]"
3,101 to 500,"COC(=O)CCN(Cc1cccc(Cl)c1)C(=O)C1(C)CCN1C(=O)Cc1csc2ccccc12 (centres unmarked) [Compound 173, 3-[[1-(2-Benzo[b]thiophen-3-yl-acetyl)-2-methyl-azetidine-2-carbonyl]-(3-chloro-benzyl)-amino]-propionic acid methyl ester]"
4,501 to 1000,"CC1(C(=O)N(CCCC(=O)O)Cc2cccc(Cl)c2)CCN1C(=O)Cc1csc2ccccc12 (centres unmarked) [Compound 148, 4-[[1-(2-Benzo[b]thiophen-3-yl-acetyl)-2-methyl-azetidine-2-carbonyl]-(3-chloro-benzyl)-amino]-butyric acid]"
5,0.01 to 100,"COC(=O)CCN(Cc1ccc2cn[nH]c2c1)C(=O)C1(C)CCN1C(=O)Cc1csc2ccccc12 (centres unmarked) [Compound 175, 3-[[1-(2-Benzo[b]thiophen-3-yl-acetyl)-2-methyl-azetidine-2-carbonyl]-(1H-indazol-6-ylmethyl)-amino]-propionic acid methyl ester]"
6,0.01 to 100,"CC1(C(=O)N(CCS(N)(=O)=O)Cc2ccc(Cl)cc2)CCN1C(=O)c1csc2ccccc12 (centres unmarked) [Compound 192, 1-(Benzo[b]thiophene-3-carbonyl)-2-methyl-azetidine-2-carboxylic acid (4-chloro-benzyl)-(2-sulfamoyl-ethyl)-amide]"
7,0.01 to 100,"C[C@]1(C(=O)N(CCCC(=O)NS(C)(=O)=O)Cc2cccc(Cl)c2)CCN1C(=O)c1csc2ccccc12 [Compound 207, (R)-1-(benzo[b]thiophene-3-carbonyl)-N-(3-chlorobenzyl)-2-methyl-N-(4-(methylsulfonamido)-4-oxobutyl)azetidine-2-carboxamide]"
8,101 to 500,"CC1(C(=O)N(CCCC(=O)O)Cc2ccc3ccoc3c2)CCN1C(=O)c1csc2ccccc12 (centres unmarked) [Compound 163, 4-{[1-(Benzo[b]thiophene-3-carbonyl)-2-methyl-azetidine-2-carbonyl]-benzofuran-6-ylmethyl-amino}-butyric acid]"
9,101 to 500,"COC(=O)CCN(Cc1cccc(Cl)c1)C(=O)C1(C)CCN1C(=O)c1csc2ccccc12 (centres unmarked) [Compound 172, 3-[[1-(Benzo[b]thiophene-3-carbonyl)-2-methyl-azetidine-2-carbonyl]-(3-chloro-benzyl)-amino]-propionic acid methyl ester]"
10,101 to 500,"COC(=O)CCN(Cc1ccc(Cl)cc1)C(=O)C1(C)CCN1C(=O)c1csc2ccccc12 (centres unmarked) [Compound 151, 3-[[1-(Benzo[b]thiophene-3-carbonyl)-2-methyl-azetidine-2-carbonyl]-(4-chloro-benzyl)-amino]-propionic acid methyl ester]"
11,> 1000,"CCOC(=O)CCCN(Cc1ccc(C(F)(F)F)cc1)C(=O)C1(C)CCN1C(=O)c1csc2ccccc12 (centres unmarked) [Compound 141, ethyl 4-(1-(benzo[b]thiophene-3-carbonyl)-2-methyl-N-(4-(trifluoromethyl)benzyl)azetidine-2-carboxamido)butanoate]"

# Source: US8759334B2, “Compounds useful for the treatment of metabolic and inflammatory diseases” (Galapagos NV, priority 2011, dated 2014)
